Assay results: the supplement of paper PMC5844555

Legend:
Assay in all cases: 3' UTR reporter interaction score (median-centred robust z-score of log2 firefly/Renilla activity); higher = less repression of the 3' UTR reporter
Conditions in all cases: HEK293T; 48 h
EZH2 = test system: EZH2
Outline: (§1)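 In at least two independent screens, HEK293T cells in 96-well plates (10,000/well) were co-transfected with DharmaFECT Duo using 100 ng firefly luc2P reporter with the gene's 3' UTR, 20 ng Renilla pRL-TK control and 2.5 pmol miRNA mimic, and dual-luciferase activities were read at 48 h. The interaction score, averaged across screens, is the per-plate robust z-score (median, median absolute deviation) of the log firefly/Renilla ratio, median-centred per miRNA, with more negative indicating interaction.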

MYB = test system: MYB
Outline: as §1

HRAS = test system: HRAS
Outline: as §1

MYCN = test system: MYCN
Outline: as §1

BRCA2 = test system: BRCA2
Outline: as §1

TP53 = test system: TP53
Outline: as §1

PHF6 = test system: PHF6
Outline: as §1

PHOX2B = test system: PHOX2B
Outline: as §1

NOTCH1 = test system: NOTCH1
Outline: as §1

ZEB2 = test system: ZEB2
Outline: as §1

RB1 = test system: RB1
Outline: as §1

MYT1L = test system: MYT1L
Outline: as §1

MYC = test system: MYC
Outline: as §1

FBXW7 = test system: FBXW7
Outline: as §1

Sequence	3' UTR reporter interaction score (EZH2)	3' UTR reporter interaction score (MYB)	3' UTR reporter interaction score (HRAS)	3' UTR reporter interaction score (MYCN)	3' UTR reporter interaction score (BRCA2)	3' UTR reporter interaction score (TP53)	3' UTR reporter interaction score (PHF6)	3' UTR reporter interaction score (PHOX2B)	3' UTR reporter interaction score (NOTCH1)	3' UTR reporter interaction score (ZEB2)	3' UTR reporter interaction score (RB1)	3' UTR reporter interaction score (MYT1L)	3' UTR reporter interaction score (MYC)	3' UTR reporter interaction score (FBXW7)
AAAAGCUGGGUUGAGAGGGCGAA	-2.65	1.19	-0.583	0.121	0.138	-0.479	0.0922	-1.64	0.666	1.15	0.499	-0.165	0.0971	0.0632
AAAAGUGCUUACAGUGCAGGUAGC	-0.783	-0.0116	0.892	-0.211	0.703	-0.24	1.56	-0.496	0.451	0.747	0.176	-1.75	0.278	-0.263
AAAAUGGUUCCCUUUAGAGUGUU	0.888	-0.486	0.747	0.195	-1.38	-1.35	0.573	-0.183	-2.3	-1.19	-2.85	0.818	0.494	0.697
AAACAAACAUGGUGCACUUCUUU	1.82	0.209	-0.444	0.437	-0.147	-0.293	-1.41	0.00827	0.581	-0.365	1.09	-1.89	0.601	-0.367
AAACCUGUGUUGUUCAAGAGUC	0.928	-0.47	0.374	-0.75	1.31	0.0666	-0.148	-2.54	0.0529	-1.07	-0.803	-0.496	-0.2	0.0167
AAACUACUGAAAAUCAAAGAU	-0.0901	0.63	-0.566	-0.411	0.536	0.261	0.0968	-0.331	-0.667	-1.71	0.321	-0.7	0.0375	-0.0213
AAACUCUACUUGUCCUUCUGAGU	-0.108	0.312	0.16	-0.333	1.32	0.757	-0.863	0.571	0.753	-1.55	0.409	-0.888	-0.658	2.09
AAAGACAUAGGAUAGAGUCACCUC	-0.299	0.438	-0.101	-0.0475	-0.417	0.557	-0.548	0.476	-1.33	0.2	-0.442	-1.82	-0.142	1.01
AAAGCGCUUCCCUUCAGAGUGU	-0.357	0.692	-0.152	-0.904	-0.304	0.336	0.134	1.41	0.385	-0.49	-1.21	-0.332	-0.758	1.07
AAAGCGCUUCCCUUUGCUGGA	0.396	-0.491	-0.256	-0.601	-0.221	-1.12	0.797	0.212	0.538	0.684	-0.977	0.0314	-0.245	0.199
AAAGCGCUUCUCUUUAGAGGA	-0.591	-0.0819	0.681	-0.629	-0.521	-0.0242	-0.164	0.331	0.581	0.196	-0.785	-0.414	-0.0856	0.112
AAAGUAGCUGUACCAUUUGC	-0.677	1.14	-1.6	0.676	0.0379	0.1	-0.00285	-0.926	1.58	1.39	-0.735	0.719	-0.314	0.57
AAAGUGCAUCCUUUUAGAGGUUU	-0.589	-1.97	-0.233	0.904	-0.233	0.429	-0.0516	0.434	1.67	0.526	-0.148	-1.16	-0.372	0.961
AAAGUGCAUCCUUUUAGAGUGUUAC	-0.596	-1.8	0.648	1.43	-0.464	1.22	-0.315	-0.251	2.14	0.599	0.0975	-1.2	0.046	0.956
AAAGUGCAUCUUUUUAGAGGAU	-0.581	-2.04	0.493	1.77	-0.243	1.24	-0.0249	0.606	0.996	-0.325	-0.176	-0.436	0.685	0.857
AAAGUGCCUCCUUUUAGAGUGU	-0.239	-0.416	0.107	1.27	-0.0588	-0.0121	1.02	-1.07	0.0165	0.00481	-0.21	0.764	0.329	0.988
AAAGUGCUGCGACAUUUGAGCGU	-1.36	-1.18	0.79	0.612	0.603	-1.1	1.58	0.221	1.03	-0.121	1.06	-0.68	0.745	0.296
AAAGUGCUUCCCUUUGGACUGU	-0.72	-1.07	0.194	-0.799	0.671	0.0148	1.36	0.0276	1.13	-0.113	1.36	-1.48	-0.227	1.67
AAAGUGCUUCCUUUUAGAGGG	-1.28	-0.541	0.261	-0.401	-0.12	0.0995	0.188	1.35	1.06	0.554	0.0746	-0.373	0.194	0.755
AAAGUGCUUCCUUUUAGAGGGUU	-1.12	-0.903	0.0494	-0.338	-0.282	-0.295	0.00103	0.533	0.779	0.894	1.13	-0.468	-0.227	1.34

Sequence	3' UTR reporter interaction score (EZH2)	3' UTR reporter interaction score (MYB)	3' UTR reporter interaction score (HRAS)	3' UTR reporter interaction score (MYCN)	3' UTR reporter interaction score (BRCA2)	3' UTR reporter interaction score (TP53)	3' UTR reporter interaction score (PHF6)	3' UTR reporter interaction score (PHOX2B)	3' UTR reporter interaction score (NOTCH1)	3' UTR reporter interaction score (ZEB2)	3' UTR reporter interaction score (RB1)	3' UTR reporter interaction score (MYT1L)	3' UTR reporter interaction score (MYC)	3' UTR reporter interaction score (FBXW7)
AAAGUGCUUCCUUUUUGAGGG	-0.296	-0.87	-0.00896	-0.0937	0.142	0.0321	-0.0231	1.32	0.985	0.44	1.02	-0.441	0.0093	0.747
AACUGGCCCUCAAAGUCCCGCUUU	0.347	-3.7	1.58	-2.37	0.335		-1.81	0.301	-1.04	0.222	1.12	-0.278	0.891	0.0369
AACUGGCCUACAAAGUCCCAG	0.239	-3.25	1.01	-2.47	-0.135	-0.0425		-0.335	-1.05	0.719	0.314	-0.789	0.942	0.16
AAUCGUACAGGGUCAUCCACUU	0.723	0.179	0.0979	-0.121	-0.12	0.0793		1.36	0.0951	0.283	-0.619	-0.171	0.0345	0.407
AGGCACCAGCCAGGCAUUGCUCAGC	1	0.348	-0.411	-0.343		0.444	0.574	-2.66	-0.1	-0.849	0.342	0.327	-0.313	-2.35
AUCACAUUGCCAGGGAUUACC	0.0796	-0.174	-0.747	0.139	-1.56		0.0907	0.2	-0.965	1.1	0.534	0.363	0.209	-0.221
CAAAAACCACAGUUUCUUUUGC	0.177	-1.54	-1.1	0.186		-0.323	0.268	0.417	-0.821	-0.847	0.189	-0.79	0.0969	-0.0284
CAAAGUGCUUACAGUGCAGGUAGU	-0.848	-0.142	0.135	-0.306	-0.125	0.459	-0.0772	0.665	0.897	1.15	0.713	-0.396	0.444	
CCUAGUAGGUGUCCAGUAAGUGU	-0.633	0.0319	-0.971	0.245	-0.873	-0.172	-0.224	0.805	0.26		-1.08	0.0095	0.727	-0.251
GGCAAGAUGCUGGCAUAGCUG	-0.113	0.765	0.647	0.322		-0.71	-1.44	1.14	-0.293	1.14	0.334	-0.16	0.017	1.19
GGCUAGCAACAGCGCUUACCU		-0.249	-0.311	0.326	-0.392	0.432	-0.414	0.192	-0.508	0.537	0.235	0.317	-0.989	0.164
GUGAAAUGUUUAGGACCACUAG	-0.221	-0.192	-0.276	-0.394	-0.28	0.19	1.07	0.216	-0.392	0.105	-0.00504	0.987		0.238
UAAUACUGCCUGGUAAUGAUGAC	0.31	-2.25	-0.0979	-0.158		-0.665	2	-1.14	-0.616	-3.47	0.622	1.12	1.05	-0.751
UACUCAGGAGAGUGGCAAUCACA	-0.403	1.48	-0.17	0.696	0.435		-1.8	0.756	-0.379	0.272	-0.0737	-0.715	0.13	-0.521
UAGCAGCACAUAAUGGUUUGUG		-1.32	1.55	-0.121	-0.161	-0.405	1	0.742	0.0154	1.33	-0.091	-2.1	1.03	-3.3
UCACUCCUCUCCUCCCGUCUUCU	-1.64	0.575	-0.435	0.923	-0.727	-0.451	0.199	-0.219	1.17	1.61	0.27	1.44		-1.25
UCUCACACAGAAAUCGCACCCGUC		0.485	-1.52	-1.33	1	-0.669	0.199	0.123	0.283	0.106	-0.308	-0.241	-3.89	-0.236
UGUAAACAUCCUUGACUGGA	-0.145	0.77	0.642	-0.313	0.0901	-0.0994	-0.821	0.574	-0.407	-1.5	-0.17	0.512		0.548
UUUCAAGCCAGGGGGCGUUUUUC	-0.378	0.555	-0.232	-0.0394	-0.216	1.02	-0.209	-0.413	-1.91		-0.19	0.976	0.49	1.22
